Experimental data reported in ChEMBL document CHEMBL5523759, “Discovery of Novel HDAC3 Inhibitors with PD-L1 Downregulating/Degrading and Antitumor Immune Effects” (J Med Chem, 2024).
Active and inactive are the calls of the source. The calls are words filed in the database; no cut-off is given here.

How the values were obtained:
[1] = Toxicity in C57BL/6 mouse implanted with mouse B16-F10 cells assessed as body weight loss at 25 mg/kg, po administered for 9 days; type: organism-based; conditions: in vivo, 216 h, time 9 day
[2] = Toxicity in C57BL/6 mouse implanted with mouse B16-F10 cells assessed as spleen damage at 25 mg/kg, po administered for 9 days by H and E staining based analysis; type: organism-based; conditions: in vivo, 216 h, time 9 day
[3] = Metabolic stability in mouse liver microsome assessed as parent compound remaining measured at 15 mins; type: ADME; conditions: liver microsomes, read-out: Stability
Tubulin = experiment: Inhibition of tubulin polymerization (unknown origin) measured upto 20 mins by spectrophotometer analysis; type: protein-complex assay, Homo sapiens
[4] = Toxicity in C57BL/6 mouse implanted with mouse B16-F10 cells assessed as kidney damage at 25 mg/kg, po administered for 9 days by H and E staining based analysis; type: organism-based; conditions: in vivo, 216 h, time 9 day
[5] = Metabolic stability in mouse liver microsome assessed as intrinsic clearance; type: ADME; conditions: liver microsomes, read-out: CLH
[6] = Metabolic stability in rat liver microsome assessed as half life; type: ADME; conditions: liver microsomes
[7] = Metabolic stability in rat liver microsome assessed as intrinsic clearance; type: ADME; conditions: liver microsomes, read-out: CLH
[8] = MRT (0 to infinity) in Sprague-Dawley rat at 20 mg/kg, po measured up to 12 hrs by LC-MS/MS analysis; type: ADME, organism-based; conditions: in vivo
[9] = Tmax in Sprague-Dawley rat at 2 mg/kg, iv measured up to 12 hrs by LC-MS/MS analysis; type: ADME, organism-based; conditions: in vivo
[10] = Toxicity in C57BL/6 mouse implanted with mouse B16-F10 cells assessed as liver damage at 25 mg/kg, po administered for 9 days by H and E staining based analysis; type: organism-based; conditions: in vivo, 216 h, time 9 day
[11] = biological target: T1, Histone deacetylase 3 (Mus musculus) (UniProt O88895); experiment: Inhibition of HDAC3 in mouse B16-F10 cells assessed as decrease in PD-L1 level measured for 24 hrs by Western blot analysis; type: cell-based; conditions: dose 1-2 µM
T1 sequence (whole entry): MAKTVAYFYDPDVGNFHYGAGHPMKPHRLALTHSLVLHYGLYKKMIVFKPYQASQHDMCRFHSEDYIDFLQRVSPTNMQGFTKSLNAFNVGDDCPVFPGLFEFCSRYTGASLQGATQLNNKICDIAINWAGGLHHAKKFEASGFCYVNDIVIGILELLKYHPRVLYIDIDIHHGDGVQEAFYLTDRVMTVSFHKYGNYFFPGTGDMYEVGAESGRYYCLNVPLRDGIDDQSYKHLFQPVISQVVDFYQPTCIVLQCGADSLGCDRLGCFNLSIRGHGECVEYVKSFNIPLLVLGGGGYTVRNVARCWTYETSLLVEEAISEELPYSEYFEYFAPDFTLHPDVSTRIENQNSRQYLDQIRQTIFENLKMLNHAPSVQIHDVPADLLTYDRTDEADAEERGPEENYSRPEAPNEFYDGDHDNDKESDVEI

B16-F10 [12] = experiment: Antitumor activity against mouse B16-F10 cells implanted in C57BL/6 mouse model assessed as reduction in tumor volume at 25 mg/kg, IG administered for 9 days; type: functional, organism-based; conditions: time 9.0 day
[13] = AUC (0 to infinity) in Sprague-Dawley rat at 2 mg/kg, iv measured up to 12 hrs by LC-MS/MS analysis; type: ADME, organism-based; conditions: in vivo
[14] = Cmax in Sprague-Dawley rat at 20 mg/kg, po measured up to 12 hrs by LC-MS/MS analysis; type: ADME, organism-based; conditions: in vivo
B16-F10 [15] = experiment: Antitumor immunity against mouse B16-F10 cells implanted in C57BL/6 mouse model assessed as increase in CD3+ CD4+ T cells at 25 mg/kg, po administered for 9 days (reference value: 1.50%); type: functional; conditions: time 9 day
[16] = AUC (0 to t) in Sprague-Dawley rat at 2 mg/kg, iv measured up to 12 hrs by LC-MS/MS analysis; type: ADME, organism-based; conditions: in vivo
[17] = biological target: Programmed cell death 1 ligand 1 (Mus musculus) (UniProt Q9EP73); experiment: Induction of PD-L1 degradation in mouse B16-F10 cells assessed as upregulation of CTSB level at 1 to 4 uM measured for 4 hrs by Western blot analysis; type: cell-based; conditions: dose 1-4 µM
Sequence of Programmed cell death 1 ligand 1 (Mus musculus) (Q9EP73 whole entry): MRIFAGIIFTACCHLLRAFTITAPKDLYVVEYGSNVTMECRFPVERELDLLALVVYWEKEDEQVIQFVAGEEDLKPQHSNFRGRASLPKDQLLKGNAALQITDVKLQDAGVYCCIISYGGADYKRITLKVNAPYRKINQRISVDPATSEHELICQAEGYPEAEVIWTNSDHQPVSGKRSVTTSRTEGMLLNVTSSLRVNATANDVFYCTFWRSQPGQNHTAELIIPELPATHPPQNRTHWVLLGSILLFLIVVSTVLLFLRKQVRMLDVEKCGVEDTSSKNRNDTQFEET

B16-F10 [18] = experiment: Antitumor activity against mouse B16-F10 cells implanted in C57BL/6 mouse model assessed as tumor growth inhibition at 25 mg/kg, IG administered for 9 days; type: functional; conditions: B16-F10, po, 216 h, time 9 day, read-out: TGI
[19] = Metabolic stability in rat liver microsome assessed as parent compound remaining measured at 5 mins; type: ADME; conditions: liver microsomes, read-out: Stability
B16-F10 [20] = experiment: Antitumor activity against mouse B16-F10 cells implanted in C57BL/6 mouse model assessed as induction of PD-L1 degradation at 25 mg/kg, po administered for 9 days by Western blot analysis; type: functional, organism-based; conditions: time 9.0 day
[21] = biological target: T1, Histone deacetylase 3 (Mus musculus); experiment: Inhibition of HDAC3 in mouse B16-F10 cells assessed as upregulation of acetylated H3 level at 1 to 2 uM measured for 24 hrs by Western blot analysis; type: cell-based; conditions: dose 1-2 µM
[22] = Toxicity in C57BL/6 mouse implanted with mouse B16-F10 cells assessed as lung damage at 25 mg/kg, po administered for 9 days by H and E staining based analysis; type: organism-based; conditions: in vivo, 216 h, time 9 day
[23] = Metabolic stability in mouse liver microsome assessed as parent compound remaining measured immediately; type: ADME; conditions: liver microsomes, read-out: Stability
[24] = AUC (0 to t) in Sprague-Dawley rat at 20 mg/kg, po measured up to 12 hrs by LC-MS/MS analysis; type: ADME, organism-based; conditions: in vivo
[25] = Acute toxicity in C57BL/6J mouse assessed as survival rate at 1000 mg/kg, po administered for 14 days; type: organism-based; conditions: in vivo, time 14 day
[26] = Acute toxicity in C57BL/6J mouse assessed as survival rate at 500 mg/kg, po administered for 14 days; type: organism-based; conditions: in vivo, time 14 day
[27] = Metabolic stability in rat liver microsome assessed as parent compound remaining measured at 15 mins; type: ADME; conditions: liver microsomes, read-out: Stability
[28] = Metabolic stability in rat liver microsome assessed as parent compound remaining measured at 30 mins; type: ADME; conditions: liver microsomes, read-out: Stability
[29] = Acute toxicity in po dosed C57BL/6J mouse assessed as lethal dose administered for 14 days; type: organism-based; conditions: in vivo, time 14 day
[30] = AUC (0 to infinity) in Sprague-Dawley rat at 20 mg/kg, po measured up to 12 hrs by LC-MS/MS analysis; type: ADME, organism-based; conditions: in vivo
[31] = Metabolic stability in rat liver microsome assessed as parent compound remaining measured at 45 mins; type: ADME; conditions: liver microsomes, read-out: Stability
Histone deacetylase 3 = Histone deacetylase 3 (Homo sapiens, UniProt O15379); experiment: Inhibition of human recombinant HDAC3 using Ac-Leu-Gly-Lys (Ac)-AMC as substrate preincubated with compound for 10 mins followed by substrate addition and measured after 45 mins by TECAN microtiter plate reader analysis
Sequence of Histone deacetylase 3 (O15379 whole entry): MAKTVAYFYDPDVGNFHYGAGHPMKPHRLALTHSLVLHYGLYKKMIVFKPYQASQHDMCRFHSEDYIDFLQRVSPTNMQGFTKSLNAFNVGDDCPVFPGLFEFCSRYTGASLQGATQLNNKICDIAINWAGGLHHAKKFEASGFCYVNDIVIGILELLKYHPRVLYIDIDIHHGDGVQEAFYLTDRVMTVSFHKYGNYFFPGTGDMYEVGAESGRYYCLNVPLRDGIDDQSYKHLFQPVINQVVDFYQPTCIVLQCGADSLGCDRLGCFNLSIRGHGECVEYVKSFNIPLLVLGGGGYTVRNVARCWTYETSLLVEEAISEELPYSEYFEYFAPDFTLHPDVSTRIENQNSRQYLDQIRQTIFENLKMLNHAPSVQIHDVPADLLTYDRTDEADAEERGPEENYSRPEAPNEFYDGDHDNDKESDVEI

[32] = biological target: T1, Histone deacetylase 3 (Mus musculus); experiment: Inhibition of HDAC3 in mouse B16-F10 cells assessed as upregulation of acetylated H3 level at 2 uM measured for 24 hrs by Western blot analysis; type: cell-based

CCCNNC(=O)c1ccc(CNC(=O)c2ncc(CNc3ccccc3)s2)cc1
Activity [1]: Non-Toxic
Activity [2]: Non-Toxic
remaining at 0.25 h [3]: 31.6%
IC50 (Tubulin): 7.3 µM
Activity [4]: Non-Toxic
CLint scaled [5]: 563 mL/min/kg
half-life [6]: 23.7 min
CLint scaled [7]: 107 mL/min/kg
MRT inf [8]: 269 min
Tmax [9]: 8.4 min
Activity [10]: Non-Toxic
inhibition [11]: Dose-Dependent Effect
Activity (B16-F10 [12]): Active
AUC(0-inf) [13]: 529 ng·h/mL
Cmax [14]: 1040 ng/mL
Activity (B16-F10 [15]): 4.16%
AUC(0-t) at 12 h [16]: 522 ng·h/mL
Activity [17]: Active
inhibition in vivo at 25 mg/kg (B16-F10 [18]): 37%
remaining at 5 min [19]: 79.9%
Activity (B16-F10 [20]): Active
inhibition [21]: Active
Activity [22]: Non-Toxic
remaining at 0 min [23]: 100%
AUC(0-t) at 12 h [24]: 2740 ng·h/mL
survival at 336 h [25]: 80%
survival at 336 h [26]: 100%
remaining at 0.25 h [27]: 57.5%
remaining at 0.5 h [28]: 38.5%
LD50 at 336 h [29]: > 1000 mg/kg
AUC(0-inf) [30]: 3030 ng·h/mL
remaining at 0.75 h [31]: 25.4%

Nc1ccccc1NC(=O)c1ccc(-c2ncc(CNc3ccccc3)s2)cc1
IC50 (Histone deacetylase 3): 0.066 µM
inhibition [32]: Active
